Values of other authors in US20250129429A1, “GENE FUSIONS IN SARCOMA” (Foundation Medicine, Inc., priority 2021, published 2025).
pIC50, pKd: −log10 of the molar value. Values belong to the molecule of their own block, whether it stands above or below them.

Experiments:
TrkB = TrkB (Homo sapiens, UniProt Q16620)
NGF dimer = NGF dimer (Homo sapiens, UniProt P01138); conditions: binds the NGF dimer
[1] = test system: NTRK1 fusion-positive tumors; conditions: patients with NTRK1 fusion-positive tumors
[2] = test system: various solid tumors with NTRK fusions; conditions: monotherapy; adult and pediatric patients, with and without CNS metastases
[3] = test system: NTRK fusion-positive AML cell lines
TrkA = TrkA (Homo sapiens, UniProt P04629)
[4] = test system: various solid tumors harboring NTRK fusions

Sequence of TrkA (P04629 33-796): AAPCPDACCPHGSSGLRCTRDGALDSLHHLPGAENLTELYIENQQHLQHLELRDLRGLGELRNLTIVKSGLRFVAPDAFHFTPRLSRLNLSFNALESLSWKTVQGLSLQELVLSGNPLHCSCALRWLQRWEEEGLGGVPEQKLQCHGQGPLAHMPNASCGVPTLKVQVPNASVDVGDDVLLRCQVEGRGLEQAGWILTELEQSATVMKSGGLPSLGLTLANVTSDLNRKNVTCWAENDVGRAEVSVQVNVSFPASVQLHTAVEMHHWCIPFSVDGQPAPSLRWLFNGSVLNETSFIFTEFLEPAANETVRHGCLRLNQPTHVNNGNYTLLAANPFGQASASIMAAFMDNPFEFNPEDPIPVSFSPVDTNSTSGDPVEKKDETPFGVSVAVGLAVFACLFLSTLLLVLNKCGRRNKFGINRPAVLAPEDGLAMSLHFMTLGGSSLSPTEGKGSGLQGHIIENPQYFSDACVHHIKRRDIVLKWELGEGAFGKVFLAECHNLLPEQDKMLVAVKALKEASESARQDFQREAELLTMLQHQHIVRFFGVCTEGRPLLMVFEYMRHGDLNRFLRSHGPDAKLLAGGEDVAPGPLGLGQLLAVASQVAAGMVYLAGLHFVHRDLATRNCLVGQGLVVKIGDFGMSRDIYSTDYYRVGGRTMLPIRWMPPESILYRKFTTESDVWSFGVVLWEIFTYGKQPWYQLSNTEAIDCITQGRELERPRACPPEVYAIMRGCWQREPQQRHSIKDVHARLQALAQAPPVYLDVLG
Sequence of NGF dimer (P01138 122-241): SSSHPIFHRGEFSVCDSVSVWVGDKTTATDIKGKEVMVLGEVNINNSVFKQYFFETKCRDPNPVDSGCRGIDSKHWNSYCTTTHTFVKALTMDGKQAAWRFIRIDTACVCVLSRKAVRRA
Sequence of TrkB (Q16620 32-822, species assumed): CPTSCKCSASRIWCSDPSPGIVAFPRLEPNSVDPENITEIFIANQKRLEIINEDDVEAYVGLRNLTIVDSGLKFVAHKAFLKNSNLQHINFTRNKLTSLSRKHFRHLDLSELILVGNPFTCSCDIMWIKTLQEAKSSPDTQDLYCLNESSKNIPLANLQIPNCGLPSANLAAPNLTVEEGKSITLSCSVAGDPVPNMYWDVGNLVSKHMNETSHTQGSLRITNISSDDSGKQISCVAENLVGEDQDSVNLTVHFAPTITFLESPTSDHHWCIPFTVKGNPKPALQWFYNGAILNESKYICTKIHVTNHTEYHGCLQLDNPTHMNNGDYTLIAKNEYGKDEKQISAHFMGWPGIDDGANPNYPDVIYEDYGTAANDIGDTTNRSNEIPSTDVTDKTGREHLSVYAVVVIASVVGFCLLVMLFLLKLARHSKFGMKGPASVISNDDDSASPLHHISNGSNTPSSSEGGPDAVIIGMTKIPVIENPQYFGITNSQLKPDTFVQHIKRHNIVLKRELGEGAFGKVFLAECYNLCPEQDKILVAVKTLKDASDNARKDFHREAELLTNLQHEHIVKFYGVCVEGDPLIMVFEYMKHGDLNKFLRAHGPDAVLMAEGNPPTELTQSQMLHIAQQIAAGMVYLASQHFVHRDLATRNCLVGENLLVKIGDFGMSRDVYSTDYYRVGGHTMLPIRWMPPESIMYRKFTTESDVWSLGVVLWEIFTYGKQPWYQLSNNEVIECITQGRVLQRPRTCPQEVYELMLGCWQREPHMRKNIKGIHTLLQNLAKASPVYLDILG

Structure (SMILES): CC(C)Oc1cc(Nc2nc(N[C@@H](C)c3ccc(F)cn3)ncc2Cl)n[nH]1 [AZ-23, 5-chloro-N-[(1S)-1-(5-fluoropyridin-2-yl)ethyl]-N′-(5-propan-2-yloxy-1H-pyrazol-3-yl)pyrimidine-2,4-diamine]
pIC50 (TrkB): 8.10

pKd (NGF dimer): ~6.00
Structure (SMILES): Cc1cc2nc3c(=O)[nH]c(=O)nc-3n(C)c2cc1C=O [Ro 08-2750]

Structure (SMILES): C[C@@H](Oc1cc(-c2cnn(C3CCNCC3)c2)cnc1N)c1c(Cl)ccc(F)c1Cl [crizotinib]
clinical responses [1]: Durable clinical responses

Structure (SMILES): CN1CCN(c2ccc(C(=O)Nc3n[nH]c4ccc(Cc5cc(F)cc(F)c5)cc34)c(NC3CCOCC3)c2)CC1 [entrectinib, N-[5-(3,5-Difluorobenzyl)-1H-indazol-3-yl]-4-(4-methyl-1-piperazinyl)-2-(tetrahydro-2H-pyran-4-ylamino)benzamide]
clinical benefit [2]: Clinical benefit with entrectinib monotherapy has been achieved | preclinical sensitivity [3]: preclinical sensitivity has been observed

pIC50 (TrkA): > 9.00
Structure (SMILES): NC(=O)Nc1snc(S[C@@H]2CCCCc3ccccc32)c1C(N)=O [isothiazole 5n]

Structure (SMILES): O=C(Nc1cnn2ccc(N3CCC[C@@H]3c3cc(F)ccc3F)nc12)N1CC[C@H](O)C1 [larotrectinib]
CR ([4]; adult and pediatric patients with solid tumors harboring NTRK fusions): 17 % of patients | ORR ([4]; adult and pediatric patients with various solid tumors harboring NTRK fusions (88/109)): 81% | responses ongoing ([4]; at 12 months of treatment): 75-81 % of patients | intracranial efficacy ([4]; individuals with NTRK fusion-positive gliomas or brain metastases): has been demonstrated

pIC50 (TrkA): 8.22
Structure (SMILES): c1ccc2c(c1)[nH]c1c3cccnc3ccc21 [pyridocarbazole]
